Reference: PubChem BioAssay AID743111 (Vanderbilt Specialized Chemistry Center, 2013)
Calls of active or inactive are those of the source.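 How the source made its calls: active means response above 60% of the acetylcholine maximum at the M5 muscarinic receptor, read as positive allosteric modulation; inactive means the rest.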

Target: Muscarinic acetylcholine receptor M5 (Rattus norvegicus) (UniProt P08911)
Assay: potentiation of ACh response at rat M5 – cell-based, rat ortholog, CHO-K1, calcium flux, ACh EC20, selectivity assay for M5 PAM project, dose response (AID 743111)
Settings: CHO-K1 rat M5, Fluo-4 calcium flux; for % ACh max response: at 30 µM (top of the series)

Chain of Muscarinic acetylcholine receptor M5 (Rattus norvegicus) (P08911 whole entry, looked up): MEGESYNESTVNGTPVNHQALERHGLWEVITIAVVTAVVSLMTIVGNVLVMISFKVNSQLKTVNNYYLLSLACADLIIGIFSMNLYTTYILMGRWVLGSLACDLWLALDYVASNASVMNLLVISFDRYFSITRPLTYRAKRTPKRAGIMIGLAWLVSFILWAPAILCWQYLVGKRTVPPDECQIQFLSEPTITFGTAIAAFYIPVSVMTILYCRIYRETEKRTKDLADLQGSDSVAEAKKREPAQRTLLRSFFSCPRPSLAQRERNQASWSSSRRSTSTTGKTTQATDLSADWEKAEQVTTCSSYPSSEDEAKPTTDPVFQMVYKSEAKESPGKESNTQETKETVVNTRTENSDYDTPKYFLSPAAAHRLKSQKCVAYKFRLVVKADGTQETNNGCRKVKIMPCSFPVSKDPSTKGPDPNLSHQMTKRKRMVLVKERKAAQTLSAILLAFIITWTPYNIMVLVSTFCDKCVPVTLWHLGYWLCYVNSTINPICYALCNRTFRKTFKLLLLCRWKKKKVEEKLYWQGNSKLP

Row | EC50 [nM] | % ACh max response | SMILES
1 | 1450 |  | CCN(Cc1ccccc1)C(=O)C1CCN(S(=O)(=O)c2ccc3[nH]ncc3c2)CC1
2 | 1200 |  | CCN(Cc1ccccc1C(F)(F)F)C(=O)C1CCN(S(=O)(=O)c2ccc3cn[nH]c3c2)CC1
3 | 640 |  | CCN(C(=O)C1CCN(S(=O)(=O)c2ccc3[nH]ncc3c2)CC1)[C@H](C)c1ccccc1
4 | 300 |  | CCN(Cc1ccccc1Cl)C(=O)C1CCN(S(=O)(=O)c2ccc3[nH]ncc3c2)CC1
5 |  | inactive | CCN(Cc1ccccc1)C(=O)C1CCN(S(=O)(=O)c2ccc(OC)cc2)CC1
6 |  | inactive | CCN(Cc1ccccc1)C(=O)C1CCN(S(=O)(=O)c2ccc3c(c2)OCCO3)CC1
7 | 1200 |  | CCN(C(=O)C1CCN(S(=O)(=O)c2ccc(-n3cccn3)cc2)CC1)[C@H](C)c1ccccc1

More lines, now with the values behind:

Row | SMILES | EC50 [nM] | % ACh max response
8 | CCCN(Cc1ccccc1C(F)(F)F)C(=O)C1CCN(S(=O)(=O)c2ccc3[nH]ncc3c2)CC1 | 320 | 
9 | CCN(Cc1ccccc1C(F)(F)F)C(=O)C1(F)CCN(S(=O)(=O)c2ccc3[nH]ncc3c2)CC1 | 710 | 
10 | CCN(Cc1ccccc1)C(=O)C1CCN(S(=O)(=O)c2ccc3cn[nH]c3c2)CC1 | 1950 | 
11 | CCN(Cc1ccccc1C(F)(F)F)C(=O)C1CCN(S(=O)(=O)c2ccc3[nH]ncc3c2)CC1 | 540 | 
12 | CCN(C(=O)C1CCN(S(=O)(=O)c2ccc3cn[nH]c3c2)CC1)[C@H](C)c1ccccc1 | 860 | 
13 | CCN(C(=O)C1CCN(S(=O)(=O)c2ccc(OC)cc2)CC1)[C@H](C)c1ccccc1 | 1570 | 
